Test results reported in patent US20150105252A1, “SUBSTITUTED PYRAZOLES AS HERBICIDES” (E I DU PONT DE NEMOURS AND COMPANY, priority 2013, published 2015).

Assays:
barnyardgrass [1] = assay: Test A preemergence; format: in vivo, Echinochloa crus-galli; details: 0 to 100 scale
Summary of the method: (§1)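 Ratings express plant response from 0 (no effect) to 100 (complete control), judged visually against untreated controls after approximately 10 days in the greenhouse. Preemergence applications were made as directed soil sprays onto seeded loam–sand mix, and postemergence applications onto 2–10 cm plants at one- to two-leaf stage.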

foxtail, giant [2] = assay: Test A preemergence; format: in vivo, Setaria faberii; details: 0 to 100 scale
Summary of the method: as §1

crabgrass, large [3] = assay: Test A preemergence; format: in vivo, Digitaria sanguinalis; details: 0 to 100 scale
Summary of the method: as §1

morningglory [4] = assay: Test A postemergence; format: in vivo, Ipomoea spp.
Summary of the method: as §1

pigweed [5] = assay: Test A preemergence; format: in vivo, Amaranthus retroflexus; details: 0 to 100 scale
Summary of the method: as §1

morningglory [6] = assay: Test A preemergence; format: in vivo, Ipomoea spp.; details: 0 to 100 scale
Summary of the method: as §1

barnyardgrass [7] = assay: Test A postemergence; format: in vivo, Echinochloa crus-galli; details: Postemergence
Summary of the method: as §1

pigweed [8] = assay: Test A postemergence; format: in vivo, Amaranthus retroflexus
Summary of the method: as §1

wheat [9] = assay: Test A postemergence; format: in vivo, Triticum aestivum
Summary of the method: as §1

velvetleaf [10] = assay: Test A preemergence; format: in vivo, Abutilon theophrasti; details: 0 to 100 scale
Summary of the method: as §1

sedge, umbrella = assay: Test C flooded paddy test; format: in vivo, Cyperus difformis; details: Flood
Text: (§2) At time of treatment, test pots were flooded to 3 cm above the soil surface, treated by application of test compounds directly to the paddy water, and then maintained at that water depth for the duration of the test. Treated plants and controls were maintained in a greenhouse for 13 to 15 days, after which time all species were compared to controls and visually evaluated. […] A dash (-) response means no test result.

corn [11] = assay: Test A postemergence; format: in vivo, Zea mays
Summary of the method: as §1

barnyardgrass [12] = assay: Test C flooded paddy test; format: in vivo, Echinochloa crus-galli; details: Flood
Summary of the method: (§3)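 Test compounds are applied straight into paddy water held 3 cm above the soil surface, with that flood maintained for the whole test. After 13 to 15 days in the greenhouse, each species is scored visually relative to controls.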

rice = assay: Test C flooded paddy test; format: in vivo, Oryza sativa; details: Flood
Text: as §2

crabgrass, large [13] = assay: Test A postemergence; format: in vivo, Digitaria sanguinalis
Summary of the method: as §1

velvetleaf [14] = assay: Test A postemergence; format: in vivo, Abutilon theophrasti
Summary of the method: as §1

corn [15] = assay: Test A preemergence; format: in vivo, Zea mays; details: 0 to 100 scale
Summary of the method: as §1

foxtail, giant [16] = assay: Test A postemergence; format: in vivo, Setaria faberii
Summary of the method: as §1

wheat [17] = assay: Test A preemergence; format: in vivo, Triticum aestivum; details: 0 to 100 scale
Summary of the method: as §1

ducksalad = assay: Test C flooded paddy test; format: in vivo, Heteranthera limosa; details: Flood
Summary of the method: as §3

[18] = Preemergence, 500 g ai/ha, 0 no effect, 100 complete control
[19] = preemergence, 125 g ai/ha, visual injury, approx. 10 days
[20] = Postemergence, 500 g ai/ha, visual rating after approx. 10 days, 0 to 100 scale (0 no effect, 100 complete control)
[21] = postemergence, 125 g ai/ha, about 10 days, visual rating on 0 to 100 scale (0 no effect, 100 complete control)
[22] = 62 g ai/ha, scale 0 to 100 (0 no effect, 100 complete control)
[23] = Preemergence, 1000 g ai/ha, 0 no effect, 100 complete control
[24] = Postemergence, 1000 g ai/ha, visual rating after approx. 10 days, 0 to 100 scale (0 no effect, 100 complete control)
[25] = 1000 g ai/ha, visual rating after approx. 10 days, 0 to 100 scale (0 no effect, 100 complete control)
[26] = 31 g ai/ha, scale 0 to 100 (0 no effect, 100 complete control)

SMILES: Cc1cc(C(=O)NCC(F)(F)F)nn1Cc1cccc(OC(F)(F)F)c1 [Compound 5]
- Barnyardgrass plant response rating (barnyardgrass [1]; [18]): 60
- Barnyardgrass plant response rating (barnyardgrass [1]; [19]): 0
- Foxtail, Giant plant response rating (foxtail, giant [2]; [18]): 70
- Foxtail, Giant plant response rating (foxtail, giant [2]; [19]): 10
- Crabgrass, Large plant response rating (crabgrass, large [3]; [18]): 100
- Crabgrass, Large plant response rating (crabgrass, large [3]; [19]): 20
- Morningglory plant response rating (morningglory [4]; [20]): 100
- Morningglory plant response rating (morningglory [4]; [21]): 40
- Pigweed plant response rating (pigweed [5]; [18]): 100
- Pigweed plant response rating (pigweed [5]; [19]): 10
- Morningglory plant response rating (morningglory [6]; [18]): 40
- Morningglory plant response rating (morningglory [6]; [19]): 0
- Barnyardgrass plant response rating (barnyardgrass [7]; 125 g ai/ha, 0 to 100 scale, 0 no effect, 100 complete control): 10
- Barnyardgrass plant response rating (barnyardgrass [7]; 500 g ai/ha, visual rating after approx. 10 days, 0 to 100 scale (0 no effect, 100 complete control)): 40
- Pigweed plant response rating (pigweed [8]; [20]): 90
- Pigweed plant response rating (pigweed [8]; [21]): 50
- Wheat plant response rating (wheat [9]; [20]): 10
- Wheat plant response rating (wheat [9]; [21]): 0
- Velvetleaf plant response rating (velvetleaf [10]; [18]): 20
- Velvetleaf plant response rating (velvetleaf [10]; [19]): 0
- Plant response rating, Sedge, Umbrella (sedge, umbrella; [22]): 50
- Plant response rating, Sedge, Umbrella (sedge, umbrella; 250 g ai/ha, scale 0 to 100): 75
- Corn plant response rating (corn [11]; [20]): 40
- Corn plant response rating (corn [11]; [21]): 10
- Plant response rating, Barnyardgrass (barnyardgrass [12]; [22]): 0
- Plant response rating, Barnyardgrass (barnyardgrass [12]; 250 g ai/ha, scale 0 to 100): 0
- Plant response rating, Rice (rice; [22]): 0
- Plant response rating, Rice (rice; 250 g ai/ha, scale 0 to 100): 0
- Crabgrass, Large plant response rating (crabgrass, large [13]; [20]): 70
- Crabgrass, Large plant response rating (crabgrass, large [13]; [21]): 10
- Velvetleaf plant response rating (velvetleaf [14]; [20]): 60
- Velvetleaf plant response rating (velvetleaf [14]; [21]): 20
- Corn plant response rating (corn [15]; [18]): 0
- Corn plant response rating (corn [15]; [19]): 0
- Foxtail, Giant plant response rating (foxtail, giant [16]; [20]): 60
- Foxtail, Giant plant response rating (foxtail, giant [16]; [21]): 10
- Wheat plant response rating (wheat [17]; [19]): 0
- Plant response rating, Ducksalad (ducksalad; [22]): 0
- Plant response rating, Ducksalad (ducksalad; 250 g ai/ha, scale 0 to 100): 60

SMILES: CCc1cc(C(=O)NCC2CC2)nn1Cc1cccc(OC(F)(F)F)c1 [Compound 53]
- Barnyardgrass plant response rating (barnyardgrass [1]; [23]): 40
- Foxtail, Giant plant response rating (foxtail, giant [2]; [23]): 90
- Crabgrass, Large plant response rating (crabgrass, large [3]; [23]): 100
- Morningglory plant response rating (morningglory [4]; [24]): 90
- Pigweed plant response rating (pigweed [5]; [23]): 100
- Morningglory plant response rating (morningglory [6]; [23]): 40
- Barnyardgrass plant response rating (barnyardgrass [7]; [25]): 40
- Pigweed plant response rating (pigweed [8]; [24]): 80
- Wheat plant response rating (wheat [9]; [24]): 30
- Velvetleaf plant response rating (velvetleaf [10]; [23]): 30
- Plant response rating, Sedge, Umbrella (sedge, umbrella; [26]): 0
- Plant response rating, Sedge, Umbrella (sedge, umbrella; [22]): 0
- Plant response rating, Sedge, Umbrella (sedge, umbrella; 125 g ai/ha, scale 0 to 100): 0
- Plant response rating, Sedge, Umbrella (sedge, umbrella; 250 g ai/ha, scale 0 to 100): 80
- Corn plant response rating (corn [11]; [24]): 40
- Plant response rating, Barnyardgrass (barnyardgrass [12]; [26]): 0
- Plant response rating, Barnyardgrass (barnyardgrass [12]; [22]): 0
- Plant response rating, Barnyardgrass (barnyardgrass [12]; 125 g ai/ha, scale 0 to 100): 0
- Plant response rating, Barnyardgrass (barnyardgrass [12]; 250 g ai/ha, scale 0 to 100): 15
- Plant response rating, Rice (rice; [26]): 0
- Plant response rating, Rice (rice; [22]): 0
- Plant response rating, Rice (rice; 125 g ai/ha, scale 0 to 100): 10
- Plant response rating, Rice (rice; 250 g ai/ha, scale 0 to 100): 30
- Crabgrass, Large plant response rating (crabgrass, large [13]; [24]): 50
- Velvetleaf plant response rating (velvetleaf [14]; [24]): 80
- Corn plant response rating (corn [15]; [23]): 10
- Foxtail, Giant plant response rating (foxtail, giant [16]; [24]): 50
- Wheat plant response rating (wheat [17]; [23]): 0
- Plant response rating, Ducksalad (ducksalad; [26]): 0
- Plant response rating, Ducksalad (ducksalad; [22]): 0
- Plant response rating, Ducksalad (ducksalad; 125 g ai/ha, scale 0 to 100): 0
- Plant response rating, Ducksalad (ducksalad; 250 g ai/ha, scale 0 to 100): 40

SMILES: CCCc1cc(C(=O)NCC)nn1Cc1cccc(OC(F)(F)F)c1 [Compound 33]
- Barnyardgrass plant response rating (barnyardgrass [1]; [23]): 40
- Foxtail, Giant plant response rating (foxtail, giant [2]; [23]): 90
- Crabgrass, Large plant response rating (crabgrass, large [3]; [23]): 100
- Morningglory plant response rating (morningglory [4]; [24]): 100
- Pigweed plant response rating (pigweed [5]; [23]): 90
- Morningglory plant response rating (morningglory [6]; [23]): 40
- Barnyardgrass plant response rating (barnyardgrass [7]; [25]): 30
- Pigweed plant response rating (pigweed [8]; [24]): 80
- Wheat plant response rating (wheat [9]; [24]): 20
- Velvetleaf plant response rating (velvetleaf [10]; [23]): 40
- Plant response rating, Sedge, Umbrella (sedge, umbrella; [26]): 10
- Plant response rating, Sedge, Umbrella (sedge, umbrella; [22]): 30
- Plant response rating, Sedge, Umbrella (sedge, umbrella; 125 g ai/ha, scale 0 to 100): 30
- Plant response rating, Sedge, Umbrella (sedge, umbrella; 250 g ai/ha, scale 0 to 100): 85
- Corn plant response rating (corn [11]; [24]): 20
- Plant response rating, Barnyardgrass (barnyardgrass [12]; [26]): 0
- Plant response rating, Barnyardgrass (barnyardgrass [12]; [22]): 0
- Plant response rating, Barnyardgrass (barnyardgrass [12]; 125 g ai/ha, scale 0 to 100): 0
- Plant response rating, Barnyardgrass (barnyardgrass [12]; 250 g ai/ha, scale 0 to 100): 0
- Plant response rating, Rice (rice; [26]): 0
- Plant response rating, Rice (rice; [22]): 0
- Plant response rating, Rice (rice; 125 g ai/ha, scale 0 to 100): 0
- Plant response rating, Rice (rice; 250 g ai/ha, scale 0 to 100): 0
- Crabgrass, Large plant response rating (crabgrass, large [13]; [24]): 80
- Velvetleaf plant response rating (velvetleaf [14]; [24]): 80
- Corn plant response rating (corn [15]; [23]): 0
- Foxtail, Giant plant response rating (foxtail, giant [16]; [24]): 70
- Wheat plant response rating (wheat [17]; [23]): 10
- Plant response rating, Ducksalad (ducksalad; [26]): 0
- Plant response rating, Ducksalad (ducksalad; [22]): 10
- Plant response rating, Ducksalad (ducksalad; 125 g ai/ha, scale 0 to 100): 20
- Plant response rating, Ducksalad (ducksalad; 250 g ai/ha, scale 0 to 100): 80

SMILES: CCCc1cc(C(=O)NC2CC2)nn1Cc1cccc(OC(F)(F)F)c1 [Compound 34]
- Barnyardgrass plant response rating (barnyardgrass [1]; [23]): 60
- Foxtail, Giant plant response rating (foxtail, giant [2]; [23]): 100
- Crabgrass, Large plant response rating (crabgrass, large [3]; [23]): 100
- Morningglory plant response rating (morningglory [4]; [24]): 100
- Pigweed plant response rating (pigweed [5]; [23]): 80
- Morningglory plant response rating (morningglory [6]; [23]): 60
- Barnyardgrass plant response rating (barnyardgrass [7]; [25]): 50
- Pigweed plant response rating (pigweed [8]; [24]): 100
- Wheat plant response rating (wheat [9]; [24]): 30
- Velvetleaf plant response rating (velvetleaf [10]; [23]): 30
- Plant response rating, Sedge, Umbrella (sedge, umbrella; [26]): 0
- Plant response rating, Sedge, Umbrella (sedge, umbrella; [22]): 10
- Plant response rating, Sedge, Umbrella (sedge, umbrella; 125 g ai/ha, scale 0 to 100): 70
- Plant response rating, Sedge, Umbrella (sedge, umbrella; 250 g ai/ha, scale 0 to 100): 80
- Corn plant response rating (corn [11]; [24]): 40
- Plant response rating, Barnyardgrass (barnyardgrass [12]; [26]): 0
- Plant response rating, Barnyardgrass (barnyardgrass [12]; [22]): 0
- Plant response rating, Barnyardgrass (barnyardgrass [12]; 125 g ai/ha, scale 0 to 100): 0
- Plant response rating, Barnyardgrass (barnyardgrass [12]; 250 g ai/ha, scale 0 to 100): 20
- Plant response rating, Rice (rice; [26]): 0
- Plant response rating, Rice (rice; [22]): 0
- Plant response rating, Rice (rice; 125 g ai/ha, scale 0 to 100): 0
- Plant response rating, Rice (rice; 250 g ai/ha, scale 0 to 100): 10
- Crabgrass, Large plant response rating (crabgrass, large [13]; [24]): 90
- Velvetleaf plant response rating (velvetleaf [14]; [24]): 100
- Corn plant response rating (corn [15]; [23]): 10
- Foxtail, Giant plant response rating (foxtail, giant [16]; [24]): 90
- Wheat plant response rating (wheat [17]; [23]): 20
- Plant response rating, Ducksalad (ducksalad; [26]): 0
- Plant response rating, Ducksalad (ducksalad; [22]): 10
- Plant response rating, Ducksalad (ducksalad; 125 g ai/ha, scale 0 to 100): 30
- Plant response rating, Ducksalad (ducksalad; 250 g ai/ha, scale 0 to 100): 80
